Laboratory results from patent publication US11111233B2, “Amino pyrimidine compound for inhibiting protein tyrosine kinase activity” (Shenzhen TargetRx, Inc., priority 2016, dated 2021).
pIC50: −log10 of the molar value. Where two headings read alike, the source gives them in different places.

What was measured:
EGFR [L858R/T790M] = EGFR [L858R/T790M] (Homo sapiens (Human), UniProt P00533, L858R/T790M); experiment: Kinase inhibition assay (HTRF), EGFR [L858R/T790M]; format: biochemical; conditions: HTRF Kinase TK kit, 10 min pre-incubation, 20 min reaction; read-out: EGFR(L858R/T790M) IC50
WT EGFR = WT EGFR (Homo sapiens (Human), UniProt P00533); experiment: Kinase inhibition assay (HTRF), WT EGFR; format: biochemical; conditions: HTRF Kinase TK kit, 10 min pre-incubation, 20 min reaction
[1] = system: Skin cancer cell line A431 (WT); experiment: Cytotoxicity test (MTS cell viability), A431; format: cell-based; conditions: for pIC50: MTS, 72 hours, read-out: A431 (WT) IC50; for IC50: A-431, 72 h, read-out: A431 (WT) IC50(nM)
[2] = system: lung cancer cells HCC827 (Del19); experiment: Cytotoxicity test (MTS cell viability), HCC827; format: cell-based; conditions: for pIC50: MTS, 72 hours, read-out: HCC827 (Del19) IC50; for IC50: HCC827, 72 h, read-out: HCC827 (Del19) IC50(nM)

Sequence of WT EGFR (P00533 25-1210): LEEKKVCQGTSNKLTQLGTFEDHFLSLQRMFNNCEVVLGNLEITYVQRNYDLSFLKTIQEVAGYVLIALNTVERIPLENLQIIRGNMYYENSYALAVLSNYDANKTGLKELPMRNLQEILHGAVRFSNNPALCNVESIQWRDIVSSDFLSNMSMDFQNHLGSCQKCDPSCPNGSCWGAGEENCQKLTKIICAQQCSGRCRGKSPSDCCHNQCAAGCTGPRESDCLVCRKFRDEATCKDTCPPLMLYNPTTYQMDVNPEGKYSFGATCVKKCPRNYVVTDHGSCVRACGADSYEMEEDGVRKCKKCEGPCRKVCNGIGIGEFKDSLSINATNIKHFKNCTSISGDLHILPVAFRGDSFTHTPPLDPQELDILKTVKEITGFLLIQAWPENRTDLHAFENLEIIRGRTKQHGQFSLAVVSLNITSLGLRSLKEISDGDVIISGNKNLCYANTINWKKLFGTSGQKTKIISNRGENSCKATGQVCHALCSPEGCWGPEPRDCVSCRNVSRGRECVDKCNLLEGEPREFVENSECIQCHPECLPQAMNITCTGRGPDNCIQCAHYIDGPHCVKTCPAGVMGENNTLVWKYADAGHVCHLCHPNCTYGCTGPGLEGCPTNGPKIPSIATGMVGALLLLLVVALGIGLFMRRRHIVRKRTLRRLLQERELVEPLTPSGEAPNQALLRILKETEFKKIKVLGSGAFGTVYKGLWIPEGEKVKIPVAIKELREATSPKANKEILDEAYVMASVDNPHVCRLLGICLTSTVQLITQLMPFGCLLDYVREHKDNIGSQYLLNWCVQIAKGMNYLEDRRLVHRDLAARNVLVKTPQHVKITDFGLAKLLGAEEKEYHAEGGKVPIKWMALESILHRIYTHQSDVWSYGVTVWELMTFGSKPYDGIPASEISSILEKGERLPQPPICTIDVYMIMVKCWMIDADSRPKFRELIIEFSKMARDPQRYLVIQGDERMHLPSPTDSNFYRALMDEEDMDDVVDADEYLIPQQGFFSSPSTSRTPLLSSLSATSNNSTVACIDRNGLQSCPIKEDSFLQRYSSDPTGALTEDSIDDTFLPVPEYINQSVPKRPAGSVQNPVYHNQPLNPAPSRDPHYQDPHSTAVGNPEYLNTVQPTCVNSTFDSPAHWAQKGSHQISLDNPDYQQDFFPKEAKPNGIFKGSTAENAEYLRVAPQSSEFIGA
Sequence of EGFR [L858R/T790M] (P00533 25-1210 T790M/L858R): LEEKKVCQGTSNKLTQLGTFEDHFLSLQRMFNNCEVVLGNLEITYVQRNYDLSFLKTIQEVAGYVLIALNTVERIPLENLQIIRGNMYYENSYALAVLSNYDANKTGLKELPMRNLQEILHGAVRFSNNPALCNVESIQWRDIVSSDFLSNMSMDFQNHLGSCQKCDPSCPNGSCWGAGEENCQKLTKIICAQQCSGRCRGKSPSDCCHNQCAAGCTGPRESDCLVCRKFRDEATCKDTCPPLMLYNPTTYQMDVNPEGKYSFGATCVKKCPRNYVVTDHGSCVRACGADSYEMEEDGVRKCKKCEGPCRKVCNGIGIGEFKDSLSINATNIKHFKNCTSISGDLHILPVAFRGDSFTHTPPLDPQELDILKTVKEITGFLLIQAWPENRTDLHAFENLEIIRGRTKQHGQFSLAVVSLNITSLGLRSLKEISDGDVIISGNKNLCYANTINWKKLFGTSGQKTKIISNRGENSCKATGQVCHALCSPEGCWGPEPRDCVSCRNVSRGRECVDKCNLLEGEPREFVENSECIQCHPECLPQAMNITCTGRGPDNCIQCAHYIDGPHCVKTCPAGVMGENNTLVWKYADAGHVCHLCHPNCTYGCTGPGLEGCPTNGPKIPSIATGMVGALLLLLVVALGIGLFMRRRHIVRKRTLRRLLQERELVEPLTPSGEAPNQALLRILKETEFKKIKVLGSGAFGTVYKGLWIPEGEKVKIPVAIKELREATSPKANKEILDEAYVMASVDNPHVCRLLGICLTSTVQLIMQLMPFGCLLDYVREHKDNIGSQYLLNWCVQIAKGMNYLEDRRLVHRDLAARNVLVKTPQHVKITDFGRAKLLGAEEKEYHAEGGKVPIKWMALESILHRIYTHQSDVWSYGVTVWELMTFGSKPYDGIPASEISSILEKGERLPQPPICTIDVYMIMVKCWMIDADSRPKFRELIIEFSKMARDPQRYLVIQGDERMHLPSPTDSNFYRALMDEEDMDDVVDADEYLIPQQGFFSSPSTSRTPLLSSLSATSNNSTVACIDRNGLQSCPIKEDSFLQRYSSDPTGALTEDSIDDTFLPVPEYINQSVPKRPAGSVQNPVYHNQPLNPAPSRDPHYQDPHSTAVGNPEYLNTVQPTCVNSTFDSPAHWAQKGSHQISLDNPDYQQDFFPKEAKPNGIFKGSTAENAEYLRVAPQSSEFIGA

Row | Molecule | pIC50 (EGFR [L858R/T790M]) | pIC50 (WT EGFR) | pIC50 ([1]; Homo sapiens, A-431) | also measured
1 | C=CC(=O)Nc1cc(Nc2ncc(OC)c(-c3cc(F)c4nc(C)n(C(C)C)c4c3)n2)c(OC)cc1N(C)CCN(C)C [Example 3, N-(2-((2-(dimethylamino)ethyl)(methyl)amino)-5-((5-methoxy-4-(4-fluoro-1-isopropyl-2-methyl-1H-benzo[d]imidazole-6-yl)pyrimidin-2-yl)amino)-4-methoxyphenyl)acrylamide] | 7.30 to 9.00 | 7.30 to 9.00 | – | –
2 | COc1cc(N2CCN(C)CC2)ccc1Nc1ncc(F)c(-c2cc(F)c3nc(C)c(C(C)C)n3c2)n1 [Example 59, 5-fluoro-4-(8-fluoro-3-isopropyl-2-methylimidazo[1,2-a]pyridine-6-yl)-N-(2-methoxy-4-(4-methylpiperazin-1-yl)phenyl)pyrimidin-2-amine] | 7.00 to 7.30 | < 7.00 | < 6.00 | pIC50 ([2]; Homo sapiens, HCC827): < 6.00
3 | C=CC(=O)Nc1cc(Nc2nccc(-c3cc4c5c(c3)n(C(C)C)c(=O)n5CCC4)n2)c(OC)cc1N(C)CCN(C)C [Example 44, N-(2-((2-(dimethylamino)ethyl)(methyl)amino)-5-((4-(1-isopropyl-2-oxo-1,2,5,6-tetrahydro-4H-imidazo[4,5,1-ij]quinolin-8-yl)pyrimidin-2-yl)amino)-4-methoxyphenyl)acrylamide] | > 9.00 | 7.30 to 9.00 | 6.00 to 6.40 | pIC50 ([2]; Homo sapiens, HCC827): > 8.00
4 | C=CC(=O)Nc1cc(Nc2nccc(-c3ccc4nc(OC)n(C(C)C)c4c3)n2)c(OC)cc1N(C)CCN(C)C [Example 24, N-(2-((2-(dimethylamino)ethyl)(methyl)amino)-5-((4-(1-isopropyl-2-methoxy-1H-benzo[d]imidazole-6-yl)pyrimidin-2-yl)amino)-4-methoxyphenyl)acrylamide] | 7.30 to 9.00 | 7.30 to 9.00 | 6.00 to 6.40 | pIC50 ([2]; Homo sapiens, HCC827): 7.00 to 8.00
5 | C=CC(=O)Nc1cc(Nc2nccc(-c3cc(OC(C)(C)C)c4nc(C)n(C(C)C)c4c3)n2)c(OC)cc1N(C)CCN(C)C [Example 30, N-(5-((4-(4-(tert-butoxy)-1-isopropyl-2-methyl-1H-benzo[d]imidazole-6-yl)pyrimidin-2-yl)amino)-2-((2-(dimethylamino)ethyl)(methyl)amino)-4-methoxyphenyl)acrylamide] | > 9.00 | > 9.00 | < 6.00 | pIC50 ([2]; Homo sapiens, HCC827): > 8.00
6 | C=CC(=O)Nc1cc(Nc2nccc(-c3cc(F)c4nc(SC)n(C(C)C)c4c3)n2)c(OC)cc1N(C)CCN(C)C [Example 63, N-(2-((2-(dimethylamino)ethyl)(methyl)amino)-5-((4-(4-fluoro-1-isopropyl-2-(methylthio)-1H-benzo[d]imidazol-6-yl)pyrimidin-2-yl)amino)-4-methoxyphenyl)acrylamide] | > 9.00 | 7.30 to 9.00 | < 6.00 | pIC50 ([2]; Homo sapiens, HCC827): 7.00 to 8.00
7 | C=CC(=O)Nc1cc(Nc2ncc(Cl)c(-c3cc(F)c4nc(C)n(C(C)C)c4c3)n2)c(OC)cc1N(C)CCN(C)C [Example 1, N-(2-((2-(dimethylamino)ethyl)(methyl)amino)-5-((5-chloro-4-(4-fluoro-1-isopropyl-2-methyl-1H-benzo[d]imidazole-6-yl)pyrimidin-2-yl)amino)-4-methoxyphenyl)acrylamide] | – | 7.30 to 9.00 | < 6.00 | pIC50 ([2]; Homo sapiens, HCC827): 7.00 to 8.00
8 | [2H]C([2H])([2H])c1nc2ccc(-c3ccnc(Nc4cc(NC(=O)C=C)c(N(C)CCN(C)C)cc4OC)n3)cc2n1C(C)C [Example 50, N-(2-((2-(dimethylamino)ethyl)(methyl)amino)-5-((4-(1-isopropyl-2-(methyl-d3)-1H-benzo[d]imidazole-6-yl)pyrimidin-2-yl)amino)-4-methoxyphenyl)acrylamide] | 7.30 to 9.00 | 7.30 to 9.00 | 6.40 to 7.00 | pIC50 ([2]; Homo sapiens, HCC827): 7.00 to 8.00
9 | C=CC(=O)Nc1cc(Nc2ncc(C#N)c(-c3cc(F)c4nc(C)n(C(C)C)c4c3)n2)c(OC)cc1N(C)CCN(C)C [Example 18, N-(2-((2-(dimethylamino)ethyl)(methyl)amino)-5-((5-cyano-4-(4-fluoro-1-isopropyl-2-methyl-1H-benzo[d]imidazole-6-yl)pyrimidin-2-yl)amino)-4-methoxyphenyl)acrylamide] | > 9.00 | 7.30 to 9.00 | – | –
10 | C=CC(=O)Nc1cc(Nc2ncc(F)c(-c3cc(F)c4nc(C)n(C(C)C)c4c3)n2)c(OC)cc1N(C)CCN(C)C [Example 19, N-(2-((2-(dimethylamino)ethyl)(methyl)amino)-5-((5-fluoro-4-(4-fluoro-1-isopropyl-2-methyl-1H-benzo[d]imidazole-6-yl)pyrimidin-2-yl)amino)-4-methoxyphenyl)acrylamide] | > 9.00 | 7.30 to 9.00 | – | –
11 | C=CC(=O)Nc1cc(Nc2nccc(-c3cc(F)c4oc(C)nc4c3)n2)c(OC)cc1N(C)CCN(C)C [Example 31, N-(2-((2-(dimethylamino)ethyl)(methyl)amino)-5-((4-(7-fluoro-2-methylbenzo[d]oxazole-5-yl)pyrimidin-2-yl)amino)-4-methoxyphenyl)acrylamide] | – | – | < 6.00 | –
12 | C=CC(=O)Nc1cc(Nc2nccc(-c3cc(F)c4nc(C)n(C(C)C)c4c3)n2)c(OC)cc1N1CCC(OC)CC1 [Example 15] | 7.30 to 9.00 | – | < 6.00 | IC50 ([2]; Homo sapiens): 100 to 400 nM
13 | C=CC(=O)Nc1cc(Nc2nccc(-c3cc(F)c4nc(C)n(C(C)C)c4c3)n2)c(OC)cc1SCCN(C)C [Example 11, N-(2-(2-(dimethylamino)ethyl)(thio)-5-((4-(4-fluoro-1-isopropyl-2-methyl-1H-benzo[d]imidazole-6-yl)pyrimidin-2-yl)amino)-4-methoxyphenyl)acrylamide] | – | 7.30 to 9.00 | – | IC50 ([1]; Homo sapiens): 400 to 1000 nM; IC50 ([2]; Homo sapiens): 10 to 100 nM
14 | C=CC(=O)Nc1cc(Nc2nccc(-c3ccc4ncn(C(C)C)c4c3)n2)c(OC)cc1N(C)CCN(C)C [Example 36, N-(2-((2-(dimethylamino)ethyl)(methyl)amino)-5-((4-(1-isopropyl-1H-benzo[d]imidazole-6-yl)pyrimidin-2-yl)amino)-4-methoxyphenyl)acrylamide] | > 9.00 | 7.30 to 9.00 | – | –
15 | C=CC(=O)Nc1cc(Nc2nccc(-c3cc(F)c4nc5n(c4c3)C(C)(C)CC5)n2)c(OC)cc1N(C)CCN(C)C [Example 5, N-(2-((2-(dimethylamino)ethyl)(methyl)amino)-5-((4-(5-fluoro-1,1-dimethyl-2,3-dihydro-1H-benzo[d]imidazole[1,2-a]pyrrol-6-yl)pyrimidin-2-yl)amino)-4-methoxyphenyl)acryl amide] | > 9.00 | 7.30 to 9.00 | – | –
16 | N-(2-(4-ethoxypiperidin)-1-yl)-5-((4-(4-fluoro-1-isopropyl-2-methyl-1H-benzo[d]imidazole-6-yl)pyrimidin-2-yl)amino)-4-methoxyphenyl)acrylamide [Example 14] | – | – | – | pIC50 [1]: < 6.00; pIC50 [2]: 6.00 to 6.40
17 | C=CC(=O)Nc1cc(Nc2nccc(-c3cc(F)c4nc(C)n(C(C)C)c4c3)n2)c(OC)cc1OCCN(C)C [Example 12, N-(2-(2-(dimethylamino)ethyl)(oxy)-5-((4-(4-fluoro-1-isopropyl-2-methyl-1H-benzo[d]imidazole-6-yl)pyrimidin-2-yl)amino)-4-methoxyphenyl)acrylamide] | – | – | – | IC50 ([1]; Homo sapiens): 100 to 400 nM; IC50 ([2]; Homo sapiens): < 10 nM
18 | C=CC(=O)Nc1cc(Nc2nccc(-c3cc(F)c4c(cnn4C)c3)n2)c(OC)cc1N(C)CCN(C)C [Example 39, N-(2-((2-(dimethylamino)ethyl)(methyl)amino)-5-((4-(7-fluoro-1-methyl-indazole-5-yl)pyrimidin-2-yl)amino)-4-methoxyphenyl)acrylamide] | – | – | – | IC50 ([1]; Homo sapiens): 100 to 400 nM
19 | C=CC(=O)Nc1cc(Nc2ncc(C(F)(F)F)c(-c3cc(F)c4nc(C)n(C(C)C)c4c3)n2)c(OC)cc1N(C)CCN(C)C [Example 4, N-(2-((2-(dimethylamino)ethyl)(methyl)amino)-5-((5-trifluoromethyl-4-(4-fluoro-1-isopropyl-2-methyl-1H-benzo[d]imidazole-6-yl)pyrimidin-2-yl)amino)-4-methoxyphenyl)acrylamide] | > 9.00 | 7.30 to 9.00 | – | –
20 | C=CC(=O)Nc1cc(Nc2nccc(-c3cc(F)c4nc(C)n(C(C)C)c4c3)n2)c(OC)cc1N1CCOCC1 [Example 16] | 7.30 to 9.00 | – | < 6.00 | IC50 ([2]; Homo sapiens): 100 to 400 nM
21 | C=CC(=O)Nc1cc(Nc2nccc(-c3cc(F)c4nc(C)n(C(C)C)c4c3)n2)c(OC(F)F)cc1N(C)CCN(C)C [Example 47] | – | 7.30 to 9.00 | 6.00 to 6.40 | IC50 ([2]; Homo sapiens): < 10 nM
22 | COc1cc(N2CCN(C)CC2)ccc1Nc1nccc(-c2cc(F)c3nc(C)n(C(C)C)c3c2)n1 [Example 54, 4-(4-fluoro-1-isopropyl-2-methyl-1H-benzo[d]imidazole-6-yl)-N-(2-methoxy-4-(4-methylpiperazin-1-yl)phenyl)pyrimidin-2-amine] | – | – | 6.00 to 6.40 | –
23 | C=CC(=O)Nc1cc(Nc2nccc(-c3ccc4nc(C(F)(F)F)n(C(C)C)c4c3)n2)c(OC)cc1N(C)CCN(C)C [Example 37, N-(2-((2-(dimethylamino)ethyl)(methyl)amino)-5-((4-(1-isopropyl-2-(trifluoromethyl)-1H-benzo[d]imidazole-6-yl)pyrimidin-2-yl)amino)-4-methoxyphenyl)acrylamide] | 7.30 to 9.00 | 7.30 to 9.00 | – | –
24 | C=CC(=O)Nc1cc(Nc2nccc(-c3cn(C)c4ccccc34)n2)c(OC)cc1N(C)CCN(C)C [AZD9291, reference compound] | – | – | – | IC50 ([1]; Homo sapiens): 100 to 400 nM; IC50 ([2]; Homo sapiens): 10 to 100 nM
25 | C=CC(=O)Nc1cc(Nc2nccc(-c3cc(F)c4nc(OC)n(C(C)C)c4c3)n2)c(OC)cc1OCCN(C)C [Example 7] | – | 7.30 to 9.00 | – | IC50 ([1]; Homo sapiens): > 1000 nM; IC50 ([2]; Homo sapiens): 10 to 100 nM
